Data: patent publication US20140112992A1, “PROCESS FOR FEBUXOSTAT” (HETERO RESEARCH FOUNDATION, priority 2011, published 2014)

Experiments:
[1] = Particle size distribution (D50) by laser diffraction, Sympatec Helos; assay type: physicochemical
Description: The term “Particle Size Distribution (P.S.D.)” means the cumulative volume size distribution of equivalent spherical diameters as determined by laser diffraction at 1 bar dispersive pressure in Sympatec Helos equipment. “Mean particle size distribution, i.e., D50” correspondingly, means the median of said particle size distribution.

[2] = system: levels of uric acid; settings: compared to allopurinol; cited from earlier work

SMILES	D50 (mean particle size distribution) ([1]; after grinding for 5 to 10 minutes) [μm]	D50 (mean particle size distribution) ([1]; before grinding, in µm (unit assumed))	amount of initial gout flares or surface area of gout tophi [2]	individuals with decreased levels of uric acid [2]
Cc1nc(-c2ccc(OCC(C)C)c(C#N)c2)sc1C(=O)O [Febuxostat crystalline Form H1, 2-[3-cyano-4-(2-methylpropoxy)phenyl]-4-methyl-5-thiazolecarboxylic acid]	2.15	322.46		
Cc1nc(-c2ccc(OCC(C)C)c(C#N)c2)sc1C(=O)O [febuxostat, 2-[3-cyano-4-(2-methylpropoxy)phenyl]-4-methyl-5-thiazolecarboxylic acid]			no difference	more individuals treated with febuxostat had decreased levels of uric acid
